Measured values: patent US4880817A, “O-functionalized derivatives of substituted isoquinolin-3-ols having cardiotonic and/or phosphodiesterase fraction III inhibiting properties and/or renal vasodilating properties” (Ortho Pharmaceutical Corporation, priority 1987, dated 1989)

tested on: adult mongrel dogs; assay: Renal vasodilating activity in anesthetized dogs; format: in vivo, mongrel dog; conditions: Canis lupus familiaris, dose 1.2 mpk, relative to controls, read-out: HR: percent change in heart rate
Description: Goldberg et al., J. Pharmacol. Exp. Ther., 163, 188 (1968), performed an investigation of the structural requirements for dopamine-like renal vasodilation of phenethylamines and apomorphine. The following procedure is a variation of the assay described in that report.
Adult mongrel dogs were anesthetized and surgically prepared for electromagnetic measurement of renal artery blood flow. A carotid artery was cannulated for measuring arterial blood pressure and drugs were administered intravenously or intraarterially (via the renal artery). Heart rate was monitored with a cardiotachometer. Renal vascular resistance was calculated as the ratio of mean arterial blood pressure to renal artery blood flow. Dopamine was infused intravenously at 3 μg/kg/min for ten minutes (at an infusion rate of about 1 ml/min) to determine responsiveness of each dog to renal dopamine receptor stimulation. Cumulative dose-response data were obtained by infusing a compound of this invention at progressively increasing (usually three-fold) infusion rates, each dose being infused for five minutes. The maximum percent change from pre-drug control in renal artery blood flow (or in renal vascular resistance) was determined for each infusion dose.
RBF, RVR, MABP, and HR values are percent changes in renal blood flow, renal vascular resistance, mean arterial blood pressure, and heart rate, respectively, relative to control values.

| Structure (SMILES) | change in vivo at 1.2 mg/kg [%] |
| --- | --- |
| COc1ccc(NC(=O)Nc2c(OC(C)=O)nc(C)c3cc(OC)c(OC)cc23)cc1 [Cmpd 32] | -23 |
| C=CCNC(=O)N(C(=O)NCC=C)c1c(OC(=O)N(CC)CC)nc(C)c2cc(OC)c(OC)cc12 [Cmpd 49] | -6 |
| CCN(CC)C(=O)Oc1nc(C)c2cc(OC)c(OC)cc2c1NC(=O)Nc1ccc(OC)cc1 [Cmpd 51] | 25 |
| CCCCNC(=O)Nc1c(OS(=O)(=O)N(C)C)nc(C)c2cc(OC)c(OC)cc12 [Cmpd 64] | 0 |
| C=CCNC(=O)Nc1c(OS(=O)(=O)N(C)C)nc(C)c2cc(OC)c(OC)cc12 [Cmpd 65] | -7 |

same assay, conditions: Canis lupus familiaris, dose 1.2 mpk, relative to controls, read-out: MABP: percent change in mean arterial blood pressure

| Structure (SMILES) | change in vivo at 1.2 mg/kg [%] |
| --- | --- |
| COc1ccc(NC(=O)Nc2c(OC(C)=O)nc(C)c3cc(OC)c(OC)cc23)cc1 [Cmpd 32] | 1 |
| C=CCNC(=O)N(C(=O)NCC=C)c1c(OC(=O)N(CC)CC)nc(C)c2cc(OC)c(OC)cc12 [Cmpd 49] | 2 |
| CCN(CC)C(=O)Oc1nc(C)c2cc(OC)c(OC)cc2c1NC(=O)Nc1ccc(OC)cc1 [Cmpd 51] | -6 |
| CCCCNC(=O)Nc1c(OS(=O)(=O)N(C)C)nc(C)c2cc(OC)c(OC)cc12 [Cmpd 64] | 4 |
| C=CCNC(=O)Nc1c(OS(=O)(=O)N(C)C)nc(C)c2cc(OC)c(OC)cc12 [Cmpd 65] | -1 |

same assay, conditions: Canis lupus familiaris, dose 1.2 mpk, relative to controls, read-out: RBF: percent change in renal blood flow

| Structure (SMILES) | change in vivo at 1.2 mg/kg [%] |
| --- | --- |
| COc1ccc(NC(=O)Nc2c(OC(C)=O)nc(C)c3cc(OC)c(OC)cc23)cc1 [Cmpd 32] | 6 |
| C=CCNC(=O)N(C(=O)NCC=C)c1c(OC(=O)N(CC)CC)nc(C)c2cc(OC)c(OC)cc12 [Cmpd 49] | 14 |
| CCN(CC)C(=O)Oc1nc(C)c2cc(OC)c(OC)cc2c1NC(=O)Nc1ccc(OC)cc1 [Cmpd 51] | 17 |
| CCCCNC(=O)Nc1c(OS(=O)(=O)N(C)C)nc(C)c2cc(OC)c(OC)cc12 [Cmpd 64] | 15 |
| C=CCNC(=O)Nc1c(OS(=O)(=O)N(C)C)nc(C)c2cc(OC)c(OC)cc12 [Cmpd 65] | 25 |

same assay, conditions: Canis lupus familiaris, dose 1.2 mpk, relative to controls, read-out: RVR: percent change in renal vascular resistance

| Structure (SMILES) | change in vivo at 1.2 mg/kg [%] |
| --- | --- |
| COc1ccc(NC(=O)Nc2c(OC(C)=O)nc(C)c3cc(OC)c(OC)cc23)cc1 [Cmpd 32] | -4 |
| C=CCNC(=O)N(C(=O)NCC=C)c1c(OC(=O)N(CC)CC)nc(C)c2cc(OC)c(OC)cc12 [Cmpd 49] | -8 |
| CCN(CC)C(=O)Oc1nc(C)c2cc(OC)c(OC)cc2c1NC(=O)Nc1ccc(OC)cc1 [Cmpd 51] | -20 |
| CCCCNC(=O)Nc1c(OS(=O)(=O)N(C)C)nc(C)c2cc(OC)c(OC)cc12 [Cmpd 64] | -9 |
| C=CCNC(=O)Nc1c(OS(=O)(=O)N(C)C)nc(C)c2cc(OC)c(OC)cc12 [Cmpd 65] | -22 |

same assay, conditions: Canis lupus familiaris, dose 1.34 mpk, relative to controls, read-out: HR: percent change in heart rate

| Structure (SMILES) | change in vivo at 1.34 mg/kg [%] |
| --- | --- |
| COc1cc2c(C)nc(OC(C)=O)c(Br)c2cc1OC [Cmpd 1] | 37 |

same assay, conditions: Canis lupus familiaris, dose 1.34 mpk, relative to controls, read-out: MABP: percent change in mean arterial blood pressure

| Structure (SMILES) | change in vivo at 1.34 mg/kg [%] |
| --- | --- |
| COc1cc2c(C)nc(OC(C)=O)c(Br)c2cc1OC [Cmpd 1] | -21 |

same assay, conditions: Canis lupus familiaris, dose 1.34 mpk, relative to controls, read-out: RBF: percent change in renal blood flow

| Structure (SMILES) | change in vivo at 1.34 mg/kg [%] |
| --- | --- |
| COc1cc2c(C)nc(OC(C)=O)c(Br)c2cc1OC [Cmpd 1] | 22 |

same assay, conditions: Canis lupus familiaris, dose 1.34 mpk, relative to controls, read-out: RVR: percent change in renal vascular resistance

| Structure (SMILES) | change in vivo at 1.34 mg/kg [%] |
| --- | --- |
| COc1cc2c(C)nc(OC(C)=O)c(Br)c2cc1OC [Cmpd 1] | 35 |

same assay, conditions: Canis lupus familiaris, dose 6.2 mpk, relative to controls, read-out: HR: percent change in heart rate

| Structure (SMILES) | change in vivo at 6.2 mg/kg [%] |
| --- | --- |
| COc1cc2c(C)nc(OC(C)=O)c([N+](=O)[O-])c2cc1OC [Cmpd 2, 3-Acetoxy-6,7-dimethoxy-1-methyl-4-nitroisoquinoline] | -2 |
| CCOc1cc2c(C)nc(OC(=O)C(C)C)c([N+](=O)[O-])c2cc1OC [Cmpd 5] | 36 |
| CCOc1cc2c(C)nc(OS(C)(=O)=O)c([N+](=O)[O-])c2cc1OC [Cmpd 6] | -10 |
| COc1cc2c(C)nc(OC(=O)c3ccc(Cl)cc3)c([N+](=O)[O-])c2cc1OC [Cmpd 15] | 3 |
| COc1cc2c(C)nc(OS(C)(=O)=O)c([N+](=O)[O-])c2cc1OC [Cmpd 16] | 19 |
| COc1cc2c(C)nc(OC(C)=O)c(N(C(C)=O)C(C)=O)c2cc1OC [Cmpd 17, 4-N,N-Diacetamido-3-acetoxy-6,7-dimethoxy-1-methylisoquinoline] | -12 |
| COc1cc2c(C)nc(OCOC(=O)C(C)(C)C)c([N+](=O)[O-])c2cc1OC [Cmpd 77] | 5 |

same assay, conditions: Canis lupus familiaris, dose 6.2 mpk, relative to controls, read-out: MABP: percent change in mean arterial blood pressure

| Structure (SMILES) | change in vivo at 6.2 mg/kg [%] |
| --- | --- |
| COc1cc2c(C)nc(OC(C)=O)c([N+](=O)[O-])c2cc1OC [Cmpd 2, 3-Acetoxy-6,7-dimethoxy-1-methyl-4-nitroisoquinoline] | -8 |
| CCOc1cc2c(C)nc(OC(=O)C(C)C)c([N+](=O)[O-])c2cc1OC [Cmpd 5] | -10 |
| CCOc1cc2c(C)nc(OS(C)(=O)=O)c([N+](=O)[O-])c2cc1OC [Cmpd 6] | -2 |
| COc1cc2c(C)nc(OC(=O)c3ccc(Cl)cc3)c([N+](=O)[O-])c2cc1OC [Cmpd 15] | -1 |
| COc1cc2c(C)nc(OS(C)(=O)=O)c([N+](=O)[O-])c2cc1OC [Cmpd 16] | -6 |
| COc1cc2c(C)nc(OC(C)=O)c(N(C(C)=O)C(C)=O)c2cc1OC [Cmpd 17, 4-N,N-Diacetamido-3-acetoxy-6,7-dimethoxy-1-methylisoquinoline] | 13 |
| COc1cc2c(C)nc(OCOC(=O)C(C)(C)C)c([N+](=O)[O-])c2cc1OC [Cmpd 77] | -3 |

same assay, conditions: Canis lupus familiaris, dose 6.2 mpk, relative to controls, read-out: RBF: percent change in renal blood flow

| Structure (SMILES) | change in vivo at 6.2 mg/kg [%] |
| --- | --- |
| COc1cc2c(C)nc(OC(C)=O)c([N+](=O)[O-])c2cc1OC [Cmpd 2, 3-Acetoxy-6,7-dimethoxy-1-methyl-4-nitroisoquinoline] | 17 |
| CCOc1cc2c(C)nc(OC(=O)C(C)C)c([N+](=O)[O-])c2cc1OC [Cmpd 5] | 42 |
| CCOc1cc2c(C)nc(OS(C)(=O)=O)c([N+](=O)[O-])c2cc1OC [Cmpd 6] | 38 |
| COc1cc2c(C)nc(OC(=O)c3ccc(Cl)cc3)c([N+](=O)[O-])c2cc1OC [Cmpd 15] | 15 |
| COc1cc2c(C)nc(OS(C)(=O)=O)c([N+](=O)[O-])c2cc1OC [Cmpd 16] | 12 |
| COc1cc2c(C)nc(OC(C)=O)c(N(C(C)=O)C(C)=O)c2cc1OC [Cmpd 17, 4-N,N-Diacetamido-3-acetoxy-6,7-dimethoxy-1-methylisoquinoline] | 63 |
| COc1cc2c(C)nc(OCOC(=O)C(C)(C)C)c([N+](=O)[O-])c2cc1OC [Cmpd 77] | 7 |

same assay, conditions: Canis lupus familiaris, dose 6.2 mpk, relative to controls, read-out: RVR: percent change in renal vascular resistance

| Structure (SMILES) | change in vivo at 6.2 mg/kg [%] |
| --- | --- |
| COc1cc2c(C)nc(OC(C)=O)c([N+](=O)[O-])c2cc1OC [Cmpd 2, 3-Acetoxy-6,7-dimethoxy-1-methyl-4-nitroisoquinoline] | -16 |
| CCOc1cc2c(C)nc(OC(=O)C(C)C)c([N+](=O)[O-])c2cc1OC [Cmpd 5] | -36 |
| CCOc1cc2c(C)nc(OS(C)(=O)=O)c([N+](=O)[O-])c2cc1OC [Cmpd 6] | -28 |
| COc1cc2c(C)nc(OC(=O)c3ccc(Cl)cc3)c([N+](=O)[O-])c2cc1OC [Cmpd 15] | -14 |
| COc1cc2c(C)nc(OS(C)(=O)=O)c([N+](=O)[O-])c2cc1OC [Cmpd 16] | -16 |
| COc1cc2c(C)nc(OC(C)=O)c(N(C(C)=O)C(C)=O)c2cc1OC [Cmpd 17, 4-N,N-Diacetamido-3-acetoxy-6,7-dimethoxy-1-methylisoquinoline] | -24 |
| COc1cc2c(C)nc(OCOC(=O)C(C)(C)C)c([N+](=O)[O-])c2cc1OC [Cmpd 77] | -8 |

same assay, conditions: Canis lupus familiaris, read-out: HR: percent change in heart rate, dose 0.3 mpk, relative to controls

| Structure (SMILES) | change in vivo at 0.3 mg/kg [%] |
| --- | --- |
| COc1cc2c(C)nc(OC(=O)N3CCN(C(=O)OC(C)(C)C)CC3)c([N+](=O)[O-])c2cc1OC [Cmpd 68] | 11 |

same assay, conditions: Canis lupus familiaris, read-out: HR: percent change in heart rate, dose 1.2 mpk, relative to controls

| Structure (SMILES) | change in vivo at 1.2 mg/kg [%] |
| --- | --- |
| CCCCNC(=O)Nc1c(OC(=O)N(CC)CC)nc(C)c2cc(OCC)c(OC)cc12 [Cmpd 45] | 11 |

same assay, conditions: Canis lupus familiaris, read-out: MABP: percent change in mean arterial blood pressure, dose 0.3 mpk, relative to controls

| Structure (SMILES) | change in vivo at 0.3 mg/kg [%] |
| --- | --- |
| COc1cc2c(C)nc(OC(=O)N3CCN(C(=O)OC(C)(C)C)CC3)c([N+](=O)[O-])c2cc1OC [Cmpd 68] | -1 |

same assay, conditions: Canis lupus familiaris, read-out: MABP: percent change in mean arterial blood pressure, dose 1.2 mpk, relative to controls

| Structure (SMILES) | change in vivo at 1.2 mg/kg [%] |
| --- | --- |
| CCCCNC(=O)Nc1c(OC(=O)N(CC)CC)nc(C)c2cc(OCC)c(OC)cc12 [Cmpd 45] | 12 |

same assay, conditions: Canis lupus familiaris, read-out: RBF: percent change in renal blood flow, dose 0.3 mpk, relative to controls

| Structure (SMILES) | change in vivo at 0.3 mg/kg [%] |
| --- | --- |
| COc1cc2c(C)nc(OC(=O)N3CCN(C(=O)OC(C)(C)C)CC3)c([N+](=O)[O-])c2cc1OC [Cmpd 68] | 17 |

same assay, conditions: Canis lupus familiaris, read-out: RBF: percent change in renal blood flow, dose 1.2 mpk, relative to controls

| Structure (SMILES) | change in vivo at 1.2 mg/kg [%] |
| --- | --- |
| CCCCNC(=O)Nc1c(OC(=O)N(CC)CC)nc(C)c2cc(OCC)c(OC)cc12 [Cmpd 45] | 15 |

same assay, conditions: Canis lupus familiaris, read-out: RVR: percent change in renal vascular resistance, dose 0.3 mpk, relative to controls

| Structure (SMILES) | change in vivo at 0.3 mg/kg [%] |
| --- | --- |
| COc1cc2c(C)nc(OC(=O)N3CCN(C(=O)OC(C)(C)C)CC3)c([N+](=O)[O-])c2cc1OC [Cmpd 68] | -13 |

same assay, conditions: Canis lupus familiaris, read-out: RVR: percent change in renal vascular resistance, dose 1.2 mpk, relative to controls

| Structure (SMILES) | change in vivo at 1.2 mg/kg [%] |
| --- | --- |
| CCCCNC(=O)Nc1c(OC(=O)N(CC)CC)nc(C)c2cc(OCC)c(OC)cc12 [Cmpd 45] | -2 |
